Data on twelve molecules can be found in US12448389B2, “BRM targeting compounds and associated methods of use” (Prelude Therapeutics Incorporated, priority 2020, dated 2025).

What is called DC50 is the midpoint of the concentration-degradation curve. In general, Dmax refers to the greatest extent of degradation seen.

Molecules are shown by their SMILES. Some results are limits rather than exact numbers.

The target in assay [1] is T1, SMARCA2-HiBiT (Homo sapiens, UniProt P51531).
T1 construct: SMARCA2-HiBiT knock-in Hela monoclonal cell (CS302366); host or cells: HeLa monoclonal knock-in line (CRISPR HiBiT knock-in at the endogenous locus, heterozygous)
As to the kind of experiment: SMARCA2 HiBiT degradation assay in HeLa cells. Format: cell-based. As to conditions: 18 hours incubation; for DC50: read-out: HeLa_HiBit-SM2 DC50; for Dmax: HeLa, read-out: HeLa-HiBit-SM2 Dmax (%). The protocol:
(§1) HiBiT peptide knock-in of SMARCA2 in LgBiT expressing HEK293T cells was performed by CRISPR-mediated tagging system as described Promega. The homozygous HiBiT knock-in on c-terminus SMARCA2 was confirmed by sanger sequence. SMARCA2-HiBiT knock-in Hela monoclonal cell (CS302366) and SMARCA4-HiBiT knock-in Hela monoclonal cell (CS3023226) were purchased from Promega. The heterozygous HiBiT-knock-in was confirmed by sanger sequence in both SMARCA2-HiBiT and SMARCA4-HiBiT monoclonal cells.
(§2) SMARCA2 HiBiT and SMARCA4 HiBiT Degradation Assay in HeLa Cells
(§3) Dispense 10 ul aliquot of prepared Hela-SMARCA2-HiBiT or Hela-SMARCA4-HiBiT cells (1:1 ratio of cells:Trypan Blue (#1450013, Bio-Rad)) onto cell counting slide (#145-0011, Bio-Rad) and obtain cell density and cell viability using cell counter (TC20, Bio-Rad). Remove appropriate volume of resuspended cells from culture flask to accommodate 2500 cells/well @20 μL/well. Transfer Hela-HiBiT cells to 50 mL conical (#430290, Corning). Spin down at 1000 rpm for 5 min using tabletop centrifuge (SPINCHRON 15, Beckman). Discard supernatant and resuspend cell pellet in modified EMEM (#30-2003, ATCC) cell culture media containing 10% FBS (F2422-500ML, Sigma), and 1×Penicillin/Streptomycin (200 g/L) (30-002-CI, Corning) to a cell density of 125,000 cells/mL. Dispense 20 μL of resuspended Hela-HiBit cells per well in 384-well TC treated plate (#12-565-343, Thermo Scientific) using standard cassette (#50950372, Thermo Scientific) on Multidrop Combi (#5840310, Thermo Scientific) inside laminar flow cabinet. Dispense test compounds onto plates using digital liquid dispenser (D300E, Tecan). Incubate plates in humidified tissue culture incubator @37° C. for 18 hours. Add 20 μL of prepared Nano-Glo® HiBiT Lytic detection buffer (N3050, Promega) to each well of 384-well plate using small tube cassette (#24073295, Thermo Scientific) on Multidrop Combi, incubate @RT for 30-60 min. Read plates on microplate reader (Envision 2105, PerkinElmer) using 384 well Ultra-Sensitive luminescence mode. Raw data files and compound information reports are swept into centralized data lake and deconvoluted using automated scripts designed by TetraScience, Inc. Data analysis, curve-fitting and reporting done in Dotmatics Informatics Suite using Screening Ultra module.
On the technique in general: HiBiT is a short tag that completes a luciferase, so light tracks the accessible tagged protein.

The target of assay [2] is T2, SMARCA4-HiBiT (Homo sapiens, UniProt P51532).
T2 construct: SMARCA4-HiBiT knock-in Hela monoclonal cell (CS3023226); host or cells: HeLa monoclonal knock-in line (CRISPR HiBiT knock-in at the endogenous locus, heterozygous)
Briefly: SMARCA4 HiBiT degradation assay in HeLa cells. As to conditions: 18 hours incubation; for DC50: read-out: HeLa-HiBit-SM4 DC50; for Dmax: HeLa, read-out: HeLa-HiBit-SM4 Dmax (%). Format: cell-based. On the procedure: as §1, §2, §3

T1 sequence (P51531 whole entry): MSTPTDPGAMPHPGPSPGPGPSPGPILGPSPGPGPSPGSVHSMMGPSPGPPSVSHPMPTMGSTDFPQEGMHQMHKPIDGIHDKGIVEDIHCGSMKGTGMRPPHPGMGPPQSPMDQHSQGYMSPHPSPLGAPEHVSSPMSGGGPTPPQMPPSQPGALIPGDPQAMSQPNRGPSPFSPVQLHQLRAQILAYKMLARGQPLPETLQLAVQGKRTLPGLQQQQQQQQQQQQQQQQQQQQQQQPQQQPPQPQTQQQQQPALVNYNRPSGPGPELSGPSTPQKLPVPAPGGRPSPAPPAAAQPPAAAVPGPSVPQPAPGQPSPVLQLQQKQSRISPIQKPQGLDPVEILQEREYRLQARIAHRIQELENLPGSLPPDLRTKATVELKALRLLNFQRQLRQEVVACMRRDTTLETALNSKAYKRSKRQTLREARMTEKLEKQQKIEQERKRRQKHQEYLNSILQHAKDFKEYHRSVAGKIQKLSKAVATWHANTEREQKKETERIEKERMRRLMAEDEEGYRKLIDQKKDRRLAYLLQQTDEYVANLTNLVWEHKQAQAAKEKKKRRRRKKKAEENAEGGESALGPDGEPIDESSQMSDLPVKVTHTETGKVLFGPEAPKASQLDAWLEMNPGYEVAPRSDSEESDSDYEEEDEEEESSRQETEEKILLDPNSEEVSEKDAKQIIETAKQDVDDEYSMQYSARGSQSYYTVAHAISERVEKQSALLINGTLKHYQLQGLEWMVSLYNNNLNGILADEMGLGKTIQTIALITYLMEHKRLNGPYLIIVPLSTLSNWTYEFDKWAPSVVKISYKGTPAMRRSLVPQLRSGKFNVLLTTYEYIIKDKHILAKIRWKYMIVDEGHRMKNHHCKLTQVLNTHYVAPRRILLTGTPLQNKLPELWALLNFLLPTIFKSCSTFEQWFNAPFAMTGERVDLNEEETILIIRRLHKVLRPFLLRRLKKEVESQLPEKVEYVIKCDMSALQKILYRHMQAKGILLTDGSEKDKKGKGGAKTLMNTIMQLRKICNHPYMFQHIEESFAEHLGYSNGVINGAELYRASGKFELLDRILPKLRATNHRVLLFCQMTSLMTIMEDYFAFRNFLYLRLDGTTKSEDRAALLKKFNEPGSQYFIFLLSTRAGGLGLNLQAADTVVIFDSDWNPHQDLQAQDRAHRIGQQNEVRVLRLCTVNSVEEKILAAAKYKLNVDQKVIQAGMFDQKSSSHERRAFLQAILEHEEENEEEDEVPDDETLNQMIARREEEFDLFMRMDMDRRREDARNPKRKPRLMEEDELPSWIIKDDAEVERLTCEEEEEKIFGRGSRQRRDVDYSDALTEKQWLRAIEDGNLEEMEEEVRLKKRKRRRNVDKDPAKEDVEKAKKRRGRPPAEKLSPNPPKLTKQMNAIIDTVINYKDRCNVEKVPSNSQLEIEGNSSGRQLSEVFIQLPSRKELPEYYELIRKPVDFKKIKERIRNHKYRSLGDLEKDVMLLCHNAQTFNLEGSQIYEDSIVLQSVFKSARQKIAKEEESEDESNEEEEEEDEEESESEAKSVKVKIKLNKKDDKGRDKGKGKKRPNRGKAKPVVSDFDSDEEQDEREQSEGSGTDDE
T2 sequence (P51532 whole entry): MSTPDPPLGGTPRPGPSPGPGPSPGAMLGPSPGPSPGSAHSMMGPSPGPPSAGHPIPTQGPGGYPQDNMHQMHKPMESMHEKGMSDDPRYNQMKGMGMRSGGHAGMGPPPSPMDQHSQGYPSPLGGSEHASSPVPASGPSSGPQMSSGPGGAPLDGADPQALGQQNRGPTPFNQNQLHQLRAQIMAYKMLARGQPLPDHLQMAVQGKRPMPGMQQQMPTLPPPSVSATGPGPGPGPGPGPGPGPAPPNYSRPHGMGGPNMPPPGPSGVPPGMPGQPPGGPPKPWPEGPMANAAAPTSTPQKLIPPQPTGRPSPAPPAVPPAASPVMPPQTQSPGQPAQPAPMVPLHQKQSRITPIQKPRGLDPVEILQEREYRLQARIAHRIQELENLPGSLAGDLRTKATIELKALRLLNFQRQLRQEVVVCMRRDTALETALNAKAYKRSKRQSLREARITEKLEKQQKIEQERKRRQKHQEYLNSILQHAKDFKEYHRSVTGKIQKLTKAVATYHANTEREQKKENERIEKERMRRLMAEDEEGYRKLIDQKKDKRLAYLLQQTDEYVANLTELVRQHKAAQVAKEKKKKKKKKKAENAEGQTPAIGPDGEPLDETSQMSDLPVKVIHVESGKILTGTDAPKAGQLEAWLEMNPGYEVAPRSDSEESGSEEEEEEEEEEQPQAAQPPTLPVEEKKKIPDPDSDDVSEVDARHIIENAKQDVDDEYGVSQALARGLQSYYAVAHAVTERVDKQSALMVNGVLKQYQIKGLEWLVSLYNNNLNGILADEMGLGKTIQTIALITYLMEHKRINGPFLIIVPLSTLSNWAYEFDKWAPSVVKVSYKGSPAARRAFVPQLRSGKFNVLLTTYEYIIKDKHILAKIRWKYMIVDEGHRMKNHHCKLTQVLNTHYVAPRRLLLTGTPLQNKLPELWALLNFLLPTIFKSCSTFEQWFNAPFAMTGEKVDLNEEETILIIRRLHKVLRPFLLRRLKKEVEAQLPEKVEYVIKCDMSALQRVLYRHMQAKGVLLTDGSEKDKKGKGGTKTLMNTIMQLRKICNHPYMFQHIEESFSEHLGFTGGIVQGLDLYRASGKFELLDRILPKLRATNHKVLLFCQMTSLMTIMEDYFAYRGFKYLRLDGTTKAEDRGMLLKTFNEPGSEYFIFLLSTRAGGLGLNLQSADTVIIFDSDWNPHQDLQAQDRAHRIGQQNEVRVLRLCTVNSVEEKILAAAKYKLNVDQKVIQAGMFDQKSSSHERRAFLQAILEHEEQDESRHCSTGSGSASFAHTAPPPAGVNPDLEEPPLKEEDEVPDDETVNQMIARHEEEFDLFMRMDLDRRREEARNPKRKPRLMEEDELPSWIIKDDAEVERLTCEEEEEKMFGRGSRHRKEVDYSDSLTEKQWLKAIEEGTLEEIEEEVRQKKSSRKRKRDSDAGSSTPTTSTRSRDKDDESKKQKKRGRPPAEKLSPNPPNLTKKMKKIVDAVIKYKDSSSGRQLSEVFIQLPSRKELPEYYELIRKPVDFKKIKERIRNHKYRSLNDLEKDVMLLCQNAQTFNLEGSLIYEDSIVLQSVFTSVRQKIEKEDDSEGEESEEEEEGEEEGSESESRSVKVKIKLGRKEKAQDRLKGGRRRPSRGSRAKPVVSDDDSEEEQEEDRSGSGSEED

For `O=C1CCC(N2Cc3ccc(C4CCN(CC5CCN(C(=O)N6CCN7c8cc(-c9ccccc9O)nnc8NC[C@H]7C6)CC5)CC4)cc3C2=O)C(=O)N1` (stereo partly drawn) [Example 143, 3-(6-(1-((1-((S)-2-(2-hydroxyphenyl)-6,6a,7,8,9,10-hexahydro-5H-pyrazino[1′,2′:4,5]pyrazino[2,3-c]pyridazine-8-carbonyl)piperidin-4-yl)methyl)piperidin-4-yl)-1-oxoisoindolin-2-yl) piperidine-2,6-dione], the DC50 in assay [1] is less than 0.01 µM; in assay [2], 0.01 to 0.1 µM. Besides, the results for the greatest degradation seen (Dmax) in assay [1] and in assay [2] were more than 85% and 75 to 85%, respectively.

Take `O=C1CCC(N2C(=O)c3cc(F)c(N4CCC(CN5CC6CCC(C5)C6CN5CCN6c7cc(-c8ccccc8O)nnc7NC[C@H]6C5)CC4)cc3C2=O)C(=O)N1` (stereo partly drawn) [Example 169, 2-(2,6-dioxopiperidin-3-yl)-5-fluoro-6-[4-[[8-[[(10S)-4-(2-hydroxyphenyl)-1,5,6,8,12-pentazatricyclo[8.4.0.02,7]tetradeca-2,4,6-trien-12-yl]methyl]-3-azabicyclo[3.2.1]octan-3-yl]methyl]piperidin-1-yl]isoindole-1,3-dione]: in assay [1], the DC50 is less than 0.01 µM and the Dmax is 75 to 85%. Besides, in assay [2], the DC50 was 0.01 to 0.1 µM and the Dmax lay in the range of 75 to 85%.

Regarding `O=C1CCC(N2C(=O)c3ccc(N4CC[C@@H]5CN(C6CCC(C(=O)N7CCN8c9cc(-c%10ccccc%10O)nnc9NC[C@H]8C7)CC6)C[C@H]5C4)cc3C2=O)C(=O)N1` (stereo partly drawn) [Example 97, 2-(2,6-dioxopiperidin-3-yl)-5-((3aS,7aS)-2-(4-((S)-2-(2-hydroxyphenyl)-6,6a,7,8,9,10-hexahydro-5H-pyrazino[1′,2′:4,5]pyrazino[2,3-c]pyridazine-8-carbonyl)cyclohexyl)octahydro-5H-pyrrolo[3,4-c]pyridin-5-yl) isoindoline-1,3-dione], in assay [1], the DC50 was less than 0.01 µM and the Dmax fell in the range of 75 to 85%. Also, in assay [2], the DC50 is 0.01 to 0.1 µM and the Dmax fell in the range of 50 to 75%.

Take `O=C1CCC(N2Cc3cc(OCCCN4CCC(N5CCN6c7cc(-c8ccccc8O)nnc7NC[C@H]6C5)CC4)ccc3C2=O)C(=O)N1` (stereo partly drawn) [Example 237, 3-(5-(3-(4-((S)-2-(2-hydroxyphenyl)-5,6,6a,7,9,10-hexahydro-8H-pyrazino[1′,2′:4,5]pyrazino[2,3-c]pyridazin-8-yl)piperidin-1-yl)propoxy)-1-oxoisoindolin-2-yl)piperidine-2,6-dione]: the DC50 in assay [1] and in assay [2] was less than 0.01 µM each time. Also, the Dmax is more than 85% in assay [1] and 75 to 85% in assay [2].

`O=C1CCC(N2C(=O)c3ccc(N4CCC(CN5CCC(CN6CCN7c8cc(-c9ccccc9O)nnc8NC[C@H]7C6)CC5)CC4)cc3C2=O)C(=O)N1COC(=O)C1(O)CC1` (stereo partly drawn) [Example 130, (3-(5-(4-((4-(((S)-2-(2-hydroxyphenyl)-5,6,6a,7,9,10-hexahydro-8H-pyrazino[1′,2′:4,5]pyrazino[2,3-c]pyridazin-8-yl)methyl)piperidin-1-yl)methyl)piperidin-1-yl)-1,3-dioxoisoindolin-2-yl)-2,6-dioxopiperidin-1-yl)methyl-1-hydroxycyclopropane-1-carboxylate]: the DC50 in assay [1] and in assay [2] was less than 0.01 µM in each case. For the same molecule, the Dmax in assay [1] and in assay [2] was more than 85% throughout.

For the molecule `O=C1CCC(N2C(=O)c3ccc(N4CCC(CNC5CCC(CN6CCN7c8cc(-c9ccccc9O)nnc8NC[C@H]7C6)CC5)CC4)cc3C2=O)C(=O)N1` (stereo partly drawn) [Example 167, 2-(2,6-dioxopiperidin-3-yl)-5-[4-[[[4-[[(10S)-4-(2-hydroxyphenyl)-1,5,6,8,12-pentazatricyclo[8.4.0.02,7]tetradeca-2,4,6-trien-12-yl]methyl]cyclohexyl]amino]methyl]piperidin-1-yl] isoindole-1,3-dione], in assay [1], the DC50 was less than 0.01 µM and the Dmax was more than 85%. For the same molecule, in assay [2], the DC50 was less than 0.01 µM and the Dmax is more than 85%.

Consider `O=C1CCC(N2C(=O)c3ccc(N4CCC(CN5C[C@@H]6[C@H](C5)[C@H]6CN5CCN6c7cc(-c8ccccc8O)nnc7NC[C@H]6C5)C(F)(F)C4)cc3C2=O)C(=O)N1` (stereo partly drawn) [Example 182, 5-[3,3-difluoro-4-[[(1S,5R)-6-[[(10S)-4-(2-hydroxyphenyl)-1,5,6,8,12-pentazatricyclo[8.4.0.02,7]tetradeca-2(7),3,5-trien-12-yl]methyl]-3-azabicyclo[3.1.0]hexan-3-yl]methyl]piperidin-1-yl]-2-(2,6-dioxopiperidin-3-yl)isoindole-1,3-dione], for which the figures for the DC50 in assay [1] and in assay [2] were less than 0.01 µM and 0.01 to 0.1 µM, respectively. The Dmax in assay [1] was more than 85%; in assay [2] it was 50 to 75%.

On to `O=C1CCC(N2Cc3cc(C4CCN(C5CCN(CCN6CCN7c8cc(-c9ccccc9O)nnc8NC[C@H]7C6)CC5)CC4)ccc3C2=O)C(=O)N1` (stereo partly drawn) [Example 212, 3-(5-(1′-(2-((S)-2-(2-hydroxyphenyl)-5,6,6a,7,9,10-hexahydro-8H-pyrazino[1′,2′:4,5]pyrazino[2,3-c]pyridazin-8-yl)ethyl)-[1,4′-bipiperidin]-4-yl)-1-oxoisoindolin-2-yl)piperidine-2,6-dione], for which the DC50 in assay [1] and in assay [2] was less than 0.01 µM throughout. In addition, the Dmax in assay [1] and in assay [2] was more than 85% in each case.

Consider `CN(C1CCN(CC2CCN(c3ccc4c(c3)C(=O)N(C3CCC(=O)NC3=O)C4=O)CC2)CC1)C1C[C@@H]2CNc3nnc(-c4ccccc4O)cc3N2C1` (stereo partly drawn) [Example 29, 2-(2,6-dioxopiperidin-3-yl)-5-(4-((4-(((6aR)-2-(2-hydroxyphenyl)-5,6,6a,7,8,9-hexahydropyrrolo[1′,2′:4,5]pyrazino[2,3-c]pyridazin-8-yl)(methyl)amino)piperidin-1-yl)methyl)piperidin-1-yl) isoindoline-1,3-dione], for which, in assay [1], the DC50 is less than 0.01 µM and the Dmax was more than 85%. For the same molecule, in assay [2], the DC50 was less than 0.01 µM and the Dmax is more than 85%.

Take `O=C1CCC(N2C(=O)c3ccc(NCCN4CCN(C(=O)N5CCN6c7cc(-c8ccccc8O)nnc7NC[C@H]6C5)CC4)cc3C2=O)C(=O)N1` (stereo partly drawn) [Example 219, 2-(2,6-dioxopiperidin-3-yl)-5-((2-(4-((S)-2-(2-hydroxyphenyl)-6,6a,7,8,9,10-hexahydro-511-pyrazino[1′,2′:4,5]pyrazino[2,3-c]pyridazine-8-carbonyl)piperazin-1-yl)ethyl)amino) isoindoline-1,3-dione]: in assay [1], the DC50 was less than 0.01 µM and the Dmax was in the range of 50 to 75%. In addition, in assay [2], the DC50 fell in the range of 0.01 to 0.1 µM and the greatest degradation seen (Dmax) was not above 50%.

Turning to `O=C1CCC(N2C(=O)c3ccc(N4CC(CN5CCC(CN6CCN7c8cc(-c9ccccc9O)nnc8NC[C@H]7C6)CC5)C4)cc3C2=O)C(=O)N1` (stereo partly drawn) [Example 247, 2-(2,6-dioxopiperidin-3-yl)-5-(3-((4-(((S)-2-(2-hydroxyphenyl)-5,6,6a,7,9,10-hexahydro-8H-pyrazino[1′,2′:4,5]pyrazino[2,3-c]pyridazin-8-yl)methyl)piperidin-1-yl)methyl)azetidin-1-yl)isoindoline-1,3-dione], in assay [1], the DC50 is less than 0.01 µM and the Dmax is more than 85%. Also, in assay [2], the DC50 was less than 0.01 µM and the Dmax is more than 85%.

Take `O=C1CCC(N2Cc3cc(N4CCC(CN5CCC(CN6CCN7c8cc(-c9ccccc9O)nnc8NC[C@H]7C6)CC5)CC4)ccc3C2=O)C(=O)N1` (stereo partly drawn) [Example 231, 3-(5-(4-((4-(((S)-2-(2-hydroxyphenyl)-5,6,6a,7,9,10-hexahydro-8H-pyrazino[1′,2′:4,5]pyrazino[2,3-c]pyridazin-8-yl)methyl)piperidin-1-yl)methyl)piperidin-1-yl)-1-oxoisoindolin-2-yl)piperidine-2,6-dione]: in assay [1], the half-maximal degradation concentration (DC50) is less than 0.01 µM and the Dmax is more than 85%. In assay [2], the DC50 is less than 0.01 µM and the Dmax is more than 85%.
